Several values for one entry are separate records, joined by “and”; a condition that tells them apart may be missing. Equal entries are not always repeated. Toxic doses and inconclusive results are not listed. Square brackets hold non-standard residues; d marks the D form. Peptide text beside a SMILES is read from it. * marks the point of attachment. Cbz = O=C(OCc1ccccc1)*; Nva = CCC[CH](N)C(=O)O

The subject of this assay is P388 leukemia ip, CD2F1 mice, survival T/C. The assay is described as follows: NCI In Vivo Anticancer Drug Screen. Data for tumor model P388 Leukemia (intraperitoneal) in CD2F1 (CDF1) mice. To be noted: endpoint: median survival time, higher = longer survival. An outline of the steps: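 Mice carrying the transplanted tumor received test compound or vehicle. Survival was recorded in each group, and the value is the treated-group measurement divided by that of the vehicle-treated control group.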

The mark [1] stands for this setting: dose: 25.0 mg/kg/injection, schedule: Q01DX009 (ip), vehicle: water.
The mark [2] stands for this setting: dose: 12.5 mg/kg/injection, schedule: Q01DX009 (ip), vehicle: saline.
The mark [3] stands for this setting: dose: 25.0 mg/kg/injection, schedule: Q01DX009 (ip), vehicle: saline.
Where [4] appears, read: dose: 50.0 mg/kg/injection, schedule: Q01DX009 (ip), vehicle: saline.

For `CC1(C)CC(OP(=[Se])(OC2CC(C)(C)N(O)C(C)(C)C2)OC2CC(C)(C)N(O)C(C)(C)C2)CC(C)(C)N1O`, the T/C reads like this: (dose: 12.5 mg/kg/injection, schedule: Q01DX001 (ip), vehicle: Klucel (hydroxypropylcellulose) (HPC)) 97 % of control; (dose: 25.0 mg/kg/injection, schedule: Q01DX001 (ip), vehicle: Klucel (hydroxypropylcellulose) (HPC)) 102 % of control; (dose: 50.0 mg/kg/injection, schedule: Q01DX001 (ip), vehicle: Klucel (hydroxypropylcellulose) (HPC)) 104 % of control.

In the case of `Clc1ccccc1OCC1CO1` (configuration not stated), the T/C runs as follows: (dose: 100.0 mg/kg/injection, schedule: Q01DX009 (ip), vehicle: saline with Tween-80) 100 % of control; (dose: 200.0 mg/kg/injection, schedule: Q01DX009 (ip), vehicle: saline with Tween-80) 109 % of control; (dose: 400.0 mg/kg/injection, schedule: Q01DX009 (ip), vehicle: saline with Tween-80) 109 % of control.

Turning to `Cc1ccc(S(=O)(=O)NC(CNC(N)=O)C(=O)O)cc1` (configuration not stated), the T/C (dose: 12.5 mg/kg/injection, schedule: Q01DX009 (ip), vehicle: other) was 107 % of control; the T/C (dose: 25.0 mg/kg/injection, schedule: Q01DX009 (ip), vehicle: other) was 101 % of control; the T/C (dose: 50.0 mg/kg/injection, schedule: Q01DX009 (ip), vehicle: other) is 100 % of control; the T/C (dose: 100.0 mg/kg/injection, schedule: Q01DX009 (ip), vehicle: other) was 97 % of control; the T/C (dose: 200.0 mg/kg/injection, schedule: Q01DX009 (ip), vehicle: other) is 96 % of control.

As for `O=[N+]([O-])c1ccc(S(=O)(=O)OI(O)c2ccccc2)cc1`, the T/C under setting [1] was 104 % of control and 105 % of control; the T/C (dose: 50.0 mg/kg/injection, schedule: Q01DX009 (ip), vehicle: water) was 98 % of control and 120 % of control and 96 % of control; the T/C (dose: 100.0 mg/kg/injection, schedule: Q01DX009 (ip), vehicle: water) is 100 % of control and 101 % of control and 91 % of control.

On to `O=C(N/N=C/c1ccc(O)cc1O)c1cccnc1`, for which the T/C is, setting by setting: (dose: 12.5 mg/kg/injection, schedule: Q01DX009 (ip), vehicle: olive oil, sesame oil, peanut oil) 106 % of control; (dose: 25.0 mg/kg/injection, schedule: Q01DX009 (ip), vehicle: olive oil, sesame oil, peanut oil) 105 % of control; (dose: 50.0 mg/kg/injection, schedule: Q01DX009 (ip), vehicle: olive oil, sesame oil, peanut oil) 121 % of control; (dose: 50.0 mg/kg/injection, schedule: Q01DX009 (oral), vehicle: saline with Tween-80) 108 % of control; (dose: 100.0 mg/kg/injection, schedule: Q01DX009 (ip), vehicle: olive oil, sesame oil, peanut oil) 102 % of control; (dose: 100.0 mg/kg/injection, schedule: Q01DX009 (oral), vehicle: saline with Tween-80) 108 % of control. Further, the T/C runs as follows: (dose: 200.0 mg/kg/injection, schedule: Q01DX009 (oral), vehicle: saline with Tween-80) 101 % of control; (dose: 400.0 mg/kg/injection, schedule: Q01DX009 (oral), vehicle: saline with Tween-80) 105 % of control.

Regarding `COc1ccccc1[N+]([O-])=NC#N`, the T/C was 107 % of control (dose: 6.25 mg/kg/injection, schedule: Q04DX003 (ip), vehicle: Klucel (hydroxypropylcellulose) (HPC)); 111 % of control (dose: 12.5 mg/kg/injection, schedule: Q04DX003 (ip), vehicle: Klucel (hydroxypropylcellulose) (HPC)); 99 % of control (dose: 25.0 mg/kg/injection, schedule: Q04DX003 (ip), vehicle: Klucel (hydroxypropylcellulose) (HPC)).

For the molecule `Clc1ccc(NC2=NCCS2)cc1Cl`, the T/C (dose: 50.0 mg/kg/injection, schedule: Q01DX009 (ip), vehicle: Klucel (hydroxypropylcellulose) (HPC)) was 103 % of control; the T/C (dose: 100.0 mg/kg/injection, schedule: Q01DX009 (ip), vehicle: Klucel (hydroxypropylcellulose) (HPC)) is 92 % of control; the T/C (dose: 200.0 mg/kg/injection, schedule: Q01DX009 (ip), vehicle: Klucel (hydroxypropylcellulose) (HPC)) was 101 % of control.

Regarding `CCCCCCCCCC[N+]1([O-])CCCCCC1`, the T/C is 100 % of control under setting [2], 106 % of control under setting [3] and 94 % of control under setting [4].

`NC(=O)CCC(N)C(=O)O.[Cl-].[Cl-].[Cl-].[Cl-].[Pt+2]` (configuration not stated): the T/C (dose: 6.25 mg/kg/injection, schedule: Q01DX009 (ip), vehicle: saline) is 107 % of control; the T/C (dose: 6.25 mg/kg/injection, schedule: Q01DX009 (ip), vehicle: water) is 153 % of control; the T/C (dose: 11.0 mg/kg/injection, schedule: Q01DX009 (ip), vehicle: saline) was 106 % of control; the T/C under setting [2] was 110 % of control; the T/C (dose: 12.5 mg/kg/injection, schedule: Q01DX009 (ip), vehicle: water) is 154 % of control and 155 % of control; the T/C under setting [1] is 155 % of control. The T/C reads like this: (dose: 37.5 mg/kg/injection, schedule: Q01DX009 (ip), vehicle: saline) 157 % of control; under setting [4], 152 % of control.

For the molecule `CCCC(NC(=O)OCc1ccccc1)C(=O)NC(CCSC)C(N)=O` (configuration not stated) (Cbz-[Nva]-Met-NH2; configuration not given here), the T/C runs as follows: (dose: 50.0 mg/kg/injection, schedule: Q01DX005 (ip), vehicle: Klucel (hydroxypropylcellulose) (HPC)) 106 % of control; (dose: 100.0 mg/kg/injection, schedule: Q01DX005 (ip), vehicle: Klucel (hydroxypropylcellulose) (HPC)) 97 % of control; (dose: 200.0 mg/kg/injection, schedule: Q01DX005 (ip), vehicle: Klucel (hydroxypropylcellulose) (HPC)) 88 % of control.

With `COC(=O)CSSCc1ccccc1`, the T/C (dose: 50.0 mg/kg/injection, schedule: Q01DX005 (ip), vehicle: suspension in saline) is 100 % of control; the T/C (dose: 100.0 mg/kg/injection, schedule: Q01DX005 (ip), vehicle: suspension in saline) was 107 % of control; the T/C (dose: 200.0 mg/kg/injection, schedule: Q01DX005 (ip), vehicle: suspension in saline) was 107 % of control.

As to `CC1(C)CC(c2ccccc2)C(c2ccccc2)C(=O)O1` (configuration not stated), the T/C is 93 % of control (dose: 100.0 mg/kg/injection, schedule: Q04DX003 (ip), vehicle: Klucel (hydroxypropylcellulose) (HPC)) and 92 % of control (dose: 200.0 mg/kg/injection, schedule: Q04DX003 (ip), vehicle: Klucel (hydroxypropylcellulose) (HPC)).

In the case of `O=S(=O)(O)c1ccc(N=Nc2c(S(=O)(=O)O)cc3cc(S(=O)(=O)O)cc(O)c3c2O)cc1`, the T/C is 93 % of control under setting [4]; 99 % of control (dose: 100.0 mg/kg/injection, schedule: Q01DX009 (ip), vehicle: saline); 106 % of control (dose: 200.0 mg/kg/injection, schedule: Q01DX009 (ip), vehicle: saline).

For the molecule `Cc1cc(Nc2ccc3c(c2)OCO3)c2cc(C3CCCCC3)ccc2n1`, the T/C is, setting by setting: (dose: 60.0 mg/kg/injection, schedule: Q01DX005 (ip), vehicle: saline with Tween-80) 95 % of control; (dose: 120.0 mg/kg/injection, schedule: Q01DX005 (ip), vehicle: saline with Tween-80) 91 % of control.

Regarding `CC(=O)OCc1ccc(/C=c2/[nH]c(=O)/c(=C\c3ccc(COC(C)=O)o3)[nH]c2=O)o1`, the T/C was 88 % of control (dose: 12.5 mg/kg/injection, schedule: Q01DX009 (ip), vehicle: distilled water + Tween-80); 90 % of control (dose: 25.0 mg/kg/injection, schedule: Q01DX009 (ip), vehicle: distilled water + Tween-80); 96 % of control (dose: 50.0 mg/kg/injection, schedule: Q01DX009 (ip), vehicle: distilled water + Tween-80); 114 % of control (dose: 100.0 mg/kg/injection, schedule: Q01DX009 (ip), vehicle: distilled water + Tween-80); 99 % of control (dose: 200.0 mg/kg/injection, schedule: Q01DX009 (ip), vehicle: distilled water + Tween-80).

Turning to `COC(=O)C1=C(C)NC(=S)NC1c1ccco1` (configuration not stated), the T/C reads like this: (dose: 100.0 mg/kg/injection, schedule: Q04DX003 (ip), vehicle: saline with Tween-80) 95 % of control; (dose: 200.0 mg/kg/injection, schedule: Q04DX003 (ip), vehicle: saline with Tween-80) 95 % of control; (dose: 400.0 mg/kg/injection, schedule: Q04DX003 (ip), vehicle: saline with Tween-80) 100 % of control.

Consider `CCC[CH2][Sn]([CH3])([CH3])[CH2]CC[N+](C)(C)C`, for which the T/C by setting is: under setting [2], 95 % of control; under setting [3], 98 % of control; under setting [4], 96 % of control.

As for `CC(=O)OCC12C(=O)CC(C)C3(CC(c4ccoc4)OC3=O)C1(C)CCCC21CO1` (configuration not stated) (tested in a mixture with another compound), the T/C is, setting by setting: (dose: 12.0 mg/kg/injection, schedule: Q01DX005 (ip), vehicle: Klucel (hydroxypropylcellulose) (HPC)) 94 % of control; (dose: 24.0 mg/kg/injection, schedule: Q01DX005 (ip), vehicle: Klucel (hydroxypropylcellulose) (HPC)) 92 % of control; (dose: 48.0 mg/kg/injection, schedule: Q01DX005 (ip), vehicle: Klucel (hydroxypropylcellulose) (HPC)) 91 % of control; (dose: 96.0 mg/kg/injection, schedule: Q01DX005 (ip), vehicle: Klucel (hydroxypropylcellulose) (HPC)) 100 % of control.

The record behind these values is PubChem BioAssay AID330 (DTP/NCI, 2004).
